The source of these data is patent publication US20010011085A1, “4-SUBSTITUTED CEPHEM DERIVATIVES AS ELASTASE INHIBITORS” (priority 1995, published 2001).

The experiment addresses T1, human leukocyte elastase (HLE) (Homo sapiens, UniProt P08246).
T1 construct: purchased Elastin Product Company
T1 sequence (P08246 30-267): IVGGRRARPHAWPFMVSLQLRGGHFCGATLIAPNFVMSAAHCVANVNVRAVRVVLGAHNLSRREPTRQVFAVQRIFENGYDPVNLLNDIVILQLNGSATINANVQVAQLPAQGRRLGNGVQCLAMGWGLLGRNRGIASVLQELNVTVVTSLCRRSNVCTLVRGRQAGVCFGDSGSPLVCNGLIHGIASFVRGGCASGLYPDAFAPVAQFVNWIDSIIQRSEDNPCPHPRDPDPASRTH
Kind of experiment: Kinetic parameters for HLE inhibition (fluorogenic substrate assay). Format: biochemical. To be noted: 37° C., 0.027M pH 7.4 phosphate buffer, substrate N-methoxysuccinyl-alanyl-prolyl-valyl-7-amido-4-methylcoumarin; for Ki: read-out: "Potency" Ki^ss (apparent dissociation constant of the HLE-inhibitor complex at steady state). As for the experimental part:
The compounds of the present invention are characterized by high inhibitory activity on elastases, especially human leukocyte elastase (HLE). […] These efficacy parameters for HLE inhibition, Ki^ss and k5/Ki, are defined in the equation below, representing the interaction of the enzyme (E) with the compounds (I), which is monitored (see Protocol) in the presence of a […] enzyme substrate (S): [formula]
Kinetic parameters of HLE (Elastin Product Company) were determined at 37° C., 0.027M pH 7.4 phosphate buffer, […], 1% MeCN, NaCl (I=0.15), by monitoring the release of 7-amino-4-methylcoumarin (fluorescence detection) from N-methoxysuccinyl-alanyl-prolyl-valyl-7-amido-4-methylcoumarin as the substrate, according to the equations: [formula]
Full details of the Experimental Protocol are reported in M. Alpegiani et al., Eur. J. Med. Chem. 1992, 27, 875-890.

With `CO[C@H]1C(=O)N2C(C(=O)N3CCCC3)=C(C)C(OC(=O)c3c(C)cc(C)cc3C)S(=O)(=O)[C@H]12` (stereo partly drawn) [Compound No. 1, 2,4,6-Trimethylbenzoic Acid (6R,7S)-7-methoxy-3-methyl-5,5,8-trioxo-2-(pyrrolidine-1-carbonyl)-5-thia-1-aza-bicyclo[4.2.0] oct-2-en-4-yl Ester], the “"Efficiency" k5/Ki (rate of formation of the HLE-inhibitor complex)” value is given as 800,000 M^−1s^−1 and the Ki was less than 2 nM.
The corresponding values for `CO[C@H]1C(=O)N2C(C(=O)N3CCCC3)=C(C)C(Sc3nc(=O)c(O)nn3C)S(=O)(=O)[C@H]12` (stereo partly drawn) [Compound No. 11, (6R,7S)-4-(6-Hydroxy-2-methyl-5-oxo-2,5-dihydro-[1,2,4]triazin-3-yl-sulfanyl)-7-methoxy-3-methyl-5,5-dioxo-2-(pyrrolidine-1-carbonyl)-5-thia-1-aza-bicyclo [4.2.0]oct-2-en-8-one] are 27,000 M^−1s^−1 and 20 nM.
Regarding `CO[C@H]1C(=O)N2C(C(=O)N3CCCC3)=C(CSc3nc(=O)c(=O)[nH]n3C)CS(=O)(=O)[C@H]12` [Reference, reference compound], the “"Efficiency" k5/Ki (rate of formation of the HLE-inhibitor complex)” value is 9,200 M^−1s^−1 and the Ki was determined as 100 nM.
